Laboratory results from ChEMBL document CHEMBL4138296, “Nonacidic Chemotype Possessing N-Acylated Piperidine Moiety as Potent Farnesoid X Receptor (FXR) Antagonists” (ACS Med Chem Lett, 2018).
Activity calls are given as the source filed them. The calls are words filed in the database; no cut-off is given here.

Assays:
[1] = molecular target: T1, Peroxisome proliferator-activated receptor delta (Homo sapiens) (UniProt Q03181); experiment: Antagonist activity at PPARdelta (unknown origin) assessed as inhibition of GW501516-induced response at 1 uM by luciferase reporter gene assay
T1 sequence (whole entry): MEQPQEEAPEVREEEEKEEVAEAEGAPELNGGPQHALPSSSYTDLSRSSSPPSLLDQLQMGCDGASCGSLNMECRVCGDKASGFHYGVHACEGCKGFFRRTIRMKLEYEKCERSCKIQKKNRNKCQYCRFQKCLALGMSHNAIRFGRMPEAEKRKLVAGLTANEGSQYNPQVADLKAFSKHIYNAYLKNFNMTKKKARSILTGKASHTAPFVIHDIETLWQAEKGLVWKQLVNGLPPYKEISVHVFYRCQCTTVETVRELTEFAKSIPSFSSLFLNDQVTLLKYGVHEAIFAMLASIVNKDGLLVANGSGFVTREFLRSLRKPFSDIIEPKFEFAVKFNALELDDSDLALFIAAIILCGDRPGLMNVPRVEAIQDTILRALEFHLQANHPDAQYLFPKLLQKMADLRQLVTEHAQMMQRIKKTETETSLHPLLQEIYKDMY

[2] = molecular target: T2, Retinoic acid receptor RXR-alpha (Homo sapiens) (UniProt P19793); experiment: Agonist activity at human RXRalpha expressed in HEK293T cells at 1 uM by luciferase reporter gene assay; format: cell-based
T2 sequence (whole entry): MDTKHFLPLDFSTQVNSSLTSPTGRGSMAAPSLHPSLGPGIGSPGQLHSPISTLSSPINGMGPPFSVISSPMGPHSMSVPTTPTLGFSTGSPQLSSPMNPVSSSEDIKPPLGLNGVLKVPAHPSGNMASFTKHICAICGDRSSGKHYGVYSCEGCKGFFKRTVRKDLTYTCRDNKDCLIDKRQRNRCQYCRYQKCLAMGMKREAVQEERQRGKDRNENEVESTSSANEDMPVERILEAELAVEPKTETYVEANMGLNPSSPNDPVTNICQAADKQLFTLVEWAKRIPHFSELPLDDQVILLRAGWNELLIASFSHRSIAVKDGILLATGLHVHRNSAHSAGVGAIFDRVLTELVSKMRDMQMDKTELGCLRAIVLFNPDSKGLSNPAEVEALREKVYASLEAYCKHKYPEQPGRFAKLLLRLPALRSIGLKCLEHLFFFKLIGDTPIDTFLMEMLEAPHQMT

[3] = molecular target: T3, Peroxisome proliferator-activated receptor gamma (Homo sapiens) (UniProt P37231); experiment: Agonist activity at PPARgamma (unknown origin) at 1 uM by luciferase reporter gene assay
T3 sequence (whole entry): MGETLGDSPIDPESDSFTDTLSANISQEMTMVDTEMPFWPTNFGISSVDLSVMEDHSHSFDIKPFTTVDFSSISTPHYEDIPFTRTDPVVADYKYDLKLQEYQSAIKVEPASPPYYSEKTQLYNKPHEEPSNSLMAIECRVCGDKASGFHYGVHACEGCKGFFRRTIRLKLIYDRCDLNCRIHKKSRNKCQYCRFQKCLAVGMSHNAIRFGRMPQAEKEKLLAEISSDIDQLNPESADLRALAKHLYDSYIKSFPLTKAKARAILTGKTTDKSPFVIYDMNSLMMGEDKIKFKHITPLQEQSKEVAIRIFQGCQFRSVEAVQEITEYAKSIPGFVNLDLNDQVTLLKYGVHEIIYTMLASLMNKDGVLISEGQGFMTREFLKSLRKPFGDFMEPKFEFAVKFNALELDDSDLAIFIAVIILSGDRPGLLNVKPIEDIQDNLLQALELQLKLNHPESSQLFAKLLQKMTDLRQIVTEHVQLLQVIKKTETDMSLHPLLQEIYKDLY

inhibition [1]: inactive | Activity [2]: inactive | Activity [3]: inactive
Compound: Cc1ccc2nc([C@H](CC3CCN(C(=O)C(C)C)CC3)N3C(=O)CN(c4ccc(Oc5ccccc5)cc4)C3=O)n(C)c2c1
